Test results reported in ChEMBL document CHEMBL3137667, “[Drug-induced liver injury; fourteenth updated edition of the bibliographic database of liver injuries and related drugs]” (Gastroenterol Clin Biol, 2004).

Legend:
[1] = Times to onset, minimal and maximal, observed in the indexed observations. [column 'DELAI' in source]; settings: human
[2] = human
[3] = human; remark: listed apart in the source
[4] = human; remark: listed apart in the source
[5] = human; remark: listed apart in the source
[6] = human; remark: listed apart in the source
[7] = human; remark: listed apart in the source
[8] = human; remark: listed apart in the source
[9] = human; remark: listed apart in the source
[10] = Highest frequency of acute liver toxicity observed during clinical trials, expressed as a percentage. [column '% AIGUE' in source]; settings: human
[11] = human; remark: listed apart in the source
[12] = human, serum
[13] = human, serum; remark: listed apart in the source
[14] = Highest frequency of moderate liver toxicity observed during clinical trials, expressed as a percentage. [column '% BIOL' in source]; settings: human
[15] = human, serum, 4383 h
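For Hepatotoxicity (association with vascular disease) in this document: count of indexed literature references reporting vascular liver injury in humans, e.g. peliosis hepatitis, hepatic veno-occlusive disease or Budd-Chiari syndrome.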
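For Hepatotoxicity (benign tumour) in this document: value is a count of indexed literature references citing a benign tumour confirmed by histopathology.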
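For Hepatotoxicity (choleostasis) in this document: human cholestatic liver injury, shown by histopathology or by peak ALT or AST elevation over alkaline phosphatase ratio below 2, value counts indexed literature reports.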
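For Hepatotoxicity (chronic liver disease) in this document: chronic liver injury confirmed by histopathology or persistently raised serum aminotransferase activity beyond 6 months, value given as the count of indexed literature references.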
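For Hepatotoxicity (cirrhosis) in this document: value is a count of indexed literature references reporting cirrhosis confirmed by histopathology.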
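For Hepatotoxicity (cytolytic) in this document: human cytolytic liver injury, shown by histopathology or by a ratio above 5 of peak ALT or AST elevation to alkaline phosphatase elevation, value counts indexed references.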
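For Hepatotoxicity (granulomatous hepatitis) in this document: value is a count of indexed literature references reporting granulomatous liver disease confirmed by histopathology.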
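For Hepatotoxicity (malignant tumour) in this document: malignant tumour confirmed by histopathology, value gives the count of indexed literature references reporting it.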
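For Hepatotoxicity (severe hepatitis) in this document: human clinical data: severe hepatitis, meaning potentially life-threatening liver failure or clinically observed cases, the value counts how many indexed literature references report it.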
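For Hepatotoxicity (steatosis) in this document: steatosis confirmed by histopathology, value is the count of indexed references.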

| SMILES | Hepatotoxicity (time to onset) [1] | Hepatotoxicity (choleostasis) [2] | Hepatotoxicity (cirrhosis) [3] | Hepatotoxicity (granulomatous hepatitis) [4] | Hepatotoxicity (steatosis) [5] | Hepatotoxicity (benign tumour) [6] | Hepatotoxicity (cytolytic) [7] | Hepatotoxicity (severe hepatitis) [8] | Hepatotoxicity (association with vascular disease) [9] | Hepatotoxicity (acute) [10] | Hepatotoxicity (malignant tumour) [11] | Hepatotoxicity (acute) [12] | Hepatotoxicity (moderate) [13] | Hepatotoxicity (moderate) [14] | Hepatotoxicity (chronic liver disease) [15] |
| --- | --- | --- | --- | --- | --- | --- | --- | --- | --- | --- | --- | --- | --- | --- | --- |
| CCN(CC)CCN1C(=O)CN=C(c2ccccc2F)c2cc(Cl)ccc21 [FLURAZEPAM] | 2 weeks - 6 months | 3 | 0 | 0 | 1 | 0 | 0 | 0 | 0 | 0% | 0 | 3 | 0 | 0% | 0 |
| Nc1ccn([C@@H]2O[C@H](CO)[C@@H](O)C2(F)F)c(=O)n1 [GEMCITABINE] | 1 cure - 7 cures | 3 | 0 | 0 | 0 | 0 | 6 | 2 | 2 | 45.5% | 0 | 12 | 13 | 90.9% | 0 |
| CO/N=C1\CN(c2nc3c(cc2F)c(=O)c(C(=O)O)cn3C2CC2)CC1CN (stereo not given) [GEMIFLOXACIN] | 6 days | 0 | 0 | 0 | 0 | 0 | 0 | 0 | 0 | 0% | 0 | 0 | 4 | 0.3% | 0 |
| CN1C2CCCC1CC(NC(=O)c1nn(C)c3ccccc13)C2 (stereo not given) [GRANISETRON] | 1 week | 0 | 0 | 0 | 0 | 0 | 0 | 0 | 0 | 0% | 0 | 0 | 2 | 7.9% | 0 |
| N=C(N)NCC1COc2ccccc2O1 (stereo not given) [GUANOXAN] | 2 months - 1 year | 2 | 0 | 0 | 0 | 0 | 1 | 1 | 0 | 10% | 0 | 2 | 2 | 30% | 0 |
| NN [HYDRAZINE] | 3.5 months | 0 | 0 | 0 | 0 | 0 | 1 | 1 | 0 | 0% | 0 | 1 | 0 | 0% | 0 |
| C[C@]12CCC(=O)C=C1CC[C@@H]1[C@@H]2[C@@H](O)C[C@@]2(C)[C@H]1CC[C@]2(O)C(=O)CO [HYDROCORTISONE] | 2 months | 0 | 0 | 0 | 10 | 0 | 0 | 1 | 0 | 0% | 0 | 0 | 1 | 25% | 0 |
